Source: the NIST ThermoML archive (doi:10.1016/j.jct.2018.08.005)
± gives the expanded uncertainty stated by the source.

What was measured:
[1] = molar heat capacity at constant pressure; details: 100 kPa, Liquid, DSC
[2] = molar heat capacity at constant pressure; xn = mol fraction of the nth substance listed; details: 100 kPa, Liquid, DSC, x2 = 0

CCOC(F)(C(F)(F)C(F)(F)C(F)(F)F)C(F)(C(F)(F)F)C(F)(F)F (configuration not stated) [2-trifluoromethyl-3-ethoxydodecafluorohexane]
[1]
Details | molar heat capacity at constant pressure [J/K/mol]
297.91 K | 466.29 ± 27
307.79 K | 472.92 ± 27
317.66 K | 479.54 ± 27
327.54 K | 486.58 ± 28
337.42 K | 494.03 ± 28
347.29 K | 500.66 ± 29
357.17 K | 508.53 ± 29
367.05 K | 517.23 ± 29
376.92 K | 523.85 ± 30
386.8 K | 531.72 ± 30

CC(C)OC(C)C [diisopropyl ether]
[1]
Details | molar heat capacity at constant pressure [J/K/mol]
290.5 K | 211.5 ± 12
295.44 K | 213.44 ± 12
300.38 K | 215.28 ± 12
305.32 K | 217.33 ± 12
310.26 K | 219.37 ± 13
315.2 K | 221.41 ± 13
320.13 K | 223.46 ± 13
325.07 K | 225.5 ± 13
330.01 K | 227.65 ± 13
334.95 K | 229.89 ± 13
339.89 K | 232.04 ± 13

CC(C)OC(C)C [diisopropyl ether] + CCOC(F)(C(F)(F)C(F)(F)C(F)(F)F)C(F)(C(F)(F)F)C(F)(F)F
[2]
Details | molar heat capacity at constant pressure [J/K/mol]
290.5 K | 211.5 ± 12
295.44 K | 213.44 ± 12
300.38 K | 215.28 ± 12
305.32 K | 217.33 ± 12
310.26 K | 219.37 ± 13
315.2 K | 221.41 ± 13
320.13 K | 223.46 ± 13
325.07 K | 225.5 ± 13
330.01 K | 227.65 ± 13
334.95 K | 229.89 ± 13
339.89 K | 232.04 ± 13
